Patent US9095624B2 (priority 2011, dated 2015)

How the values were obtained:
[1] = system: Balb/c ByJIco-nu/nu mice with A431 human epidermoid carcinoma xenografts; details: mouse, in vivo
[2] = system: DBA/2 mice with Cloudman S91 melanoma; assay: Photodynamic therapy, Cloudman S91 melanoma; format: in vivo; details: PDT
Method: (§1) In order to evaluate the potential utility of MTP for enhancing the therapeutic efficacy of a drug that requires localization within the cell nucleus to be effective, photodynamic therapy (PDT) studies were performed in three different murine subcutaneous tumor models, with PDT initiated three hours after photosensitizer (PS) injection. The comparative efficacy of photodynamic therapy with bacteriochlorin p conjugated with DTox-HMP-NLS-αMSH MTP and free bacteriochlorin p is reported in FIGS. 11A-D.
The second experiment utilized DBA/2 mice with Cloudman S91 melanoma. FIG. 11C reports tumor growth, mean±SEM with the injection and illumination cycles being indicated with arrows. The average tumor volumes are shown up to the last day when all animals were alive in a group. FIG. 11D provides the Kaplan-Meier survival curve. […] The median survival for mice receiving PS-MTP conjugate was 56.0±18.6 days compared with 21.0±0.7 days for the control group and 31.0±1.3 days for the bacteriochlorin group (FIG. 11D).

[3] = system: C57Black/6J mice with B16-F1 melanoma; assay: Photodynamic therapy, B16-F1 melanoma; format: in vivo
Method: as §1
The first experiment was performed in C57Black/6J mice with B16-F1 melanoma. FIG. 11A reports tumor growth, mean±SEM, with injection and illumination cycles indicated with arrows. The average tumor volumes are shown up to the last day when all animals were alive in a group. FIG. 11B provides the Kaplan-Meier survival curve. […] The median survival for mice receiving PS-MTP conjugate was 32.0±1.3 days compared with 17.0±1.5 days for the control group and 20.0±5.5 days for the bacteriochlorin group (FIG. 11B). The difference in survival between PS-MTP and each of two control groups was significant (p<0.01).

| Compound | animals remaining alive at the end of the observation period [1] | median survival [2] | median survival ([3]; PDT) | inhibition in tumor growth ([3]; PDT three hours after photosensitizer injection) |
| --- | --- | --- | --- | --- |
| C=Cc1c(C)c2cc3nc(c(CC(=O)O)c4[nH]c(cc5nc(cc1[nH]2)C(C)=C5CC)c(C)c4C(=O)O)[C@@H](CCC(=O)O)[C@@H]3C [chlorin e6] | 20% | – | – | – |
| bacteriochlorin p | – | 31.0 ± 1.3 days | 20.0 ± 5.5 days | no significant effect |
